Test results reported in US11214803B2, “Modulators of YAP1 expression” (Ionis Pharmaceuticals, Inc., priority 2019, dated 2022).
Marks after values point to notes of the source that are not given here. Strand notation (5' to 3'): a small letter for the sugar, then the base; units joined by * are phosphorothioate-linked, units joined directly phosphodiester-linked; [ ] holds rarer units or linkages, { } end groups; capitals alone tell only the bases. k = constrained ethyl (cEt); [5mC] = 5-methylcytosine; d = 2'-deoxy (DNA)

System: Yap1 mRNA
Experiment: Antisense inhibition of human Yap1 in A-431 cells by cEt gapmers, single dose (Example 2, RTS4814)
Type: cell-based
In short: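 A-431 cells (5,000/well) received 2,000 nM oligonucleotide by free uptake for about 48 h. Yap1 mRNA was then quantified by RT-qPCR with primer probe set RTS4814, normalized to RIBOGREEN total RNA, and reported as % of untreated control; asterisked values mark oligos inside the amplicon.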

[1] = Table 6, A-431 cells, 5,000 cells per well, free uptake, 2,000 nM modified oligonucleotide, approx. 48 hours, RTS4814, normalized to RIBOGREEN, Yap1 mRNA relative to untreated control cells
[2] = Table 19, A-431 cells, 5,000 cells per well, free uptake, 2,000 nM modified oligonucleotide, approx. 48 hours, RTS4814, normalized to RIBOGREEN, Yap1 mRNA as percent of untreated control
[3] = Table 5, A-431 cells, 5,000 cells per well, free uptake, 2,000 nM modified oligonucleotide, approx. 48 hours, RTS4814, normalized to RIBOGREEN, Yap1 mRNA relative to untreated control cells
[4] = Table 25, Yap1 mRNA as percent of untreated control, 3-10-3 cEt gapmers targeting SEQ ID NO.: 1, and 2
[5] = Table 18, A-431 cells, 5,000 cells per well, free uptake, 2,000 nM modified oligonucleotide, approx. 48 hours, RTS4814, normalized to RIBOGREEN, Yap1 mRNA as percent of untreated control
[6] = Table 20, Yap1 mRNA, percent of untreated control, 3-10-3 cEt gapmers targeting SEQ ID NO.: 1 and 2
[7] = Table 23, Yap1 mRNA as percent of untreated control, 3-10-3 cEt gapmers, single dose
[8] = Table 24, Yap1 mRNA as percent of untreated control, 3-10-3 cEt gapmers targeting SEQ ID NO.: 1, and 2
[9] = Table 32, Yap1 mRNA, percent of untreated control, 3-10-3 cEt gapmers targeting SEQ ID NO.: 1, and 2
[10] = Table 21, Yap1 mRNA, percent of untreated control, 3-10-3 cEt gapmers targeting SEQ ID NO.: 1 and 2
[11] = Yap1 mRNA as percent of untreated control, A-431 cells, 3-10-3 cEt gapmers targeting SEQ ID NO.: 1, and 2, Table 30
[12] = Table 22, Yap1 mRNA as percent of untreated control, 3-10-3 cEt gapmers, single dose
[13] = A-431 cells, 5,000 cells per well, free uptake, 2,000 nM modified oligonucleotide, approx. 48 hours, RTS4814, normalized to RIBOGREEN, Table 4, asterisk (*) = targets amplicon region of primer probe set

With “716477 (kG*kT*kG*dT*dT*d[5mC]*dA*dT*dT*dA*d[5mC]*dA*dA*kA*kT*kG; antisense) [Compound 716477]” the “YAP1 (% UTC)” value [1] was 42 % UTC.
With “1075973 (k[5mC]*k[5mC]*kG*d[5mC]*dA*dA*d[5mC]*dA*d[5mC]*d[5mC]*dA*dT*dT*k[5mC]*kT*kT; antisense) [Compound 1075973]” the “YAP1 (% UTC)” value [2] was 8 % UTC.
With “1074405 (antisense kG*k[5mC]*k[5mC]*dT*dG*dA*dA*dA*dA*d[5mC]*dT*dG*d[5mC]*kA*kA*k[5mC]) [Compound 1074405]” the “YAP1 (% UTC)” value [2] was 27 % UTC.
In the case of “716561 (kA*kA*kG*dG*dT*dA*dT*dT*dA*d[5mC]*dA*dT*dA*kA*kG*kA; antisense) [Compound 716561]”, the “YAP1 (% UTC)” value [1] is reported as 58 % UTC.
For “716401 (kA*kA*k[5mC]*dT*dG*dG*d[5mC]*dT*dA*d[5mC]*dG*d[5mC]*dA*kG*kG*kG; antisense) [Compound 716401]”, the “YAP1 (% UTC)” value [3] was 92 % UTC.
With “716554 (kA*kT*kG*d[5mC]*dT*dT*dG*d[5mC]*dG*dA*dG*dG*dA*kT*kA*kA; antisense) [Compound 716554]” the “YAP1 (% UTC)” value [3] was 30 % UTC.
For “1075755 (kA*k[5mC]*kT*dT*dA*dA*dA*dT*dG*dG*d[5mC]*dA*d[5mC]*kA*kG*kT; antisense) [Compound 1075755]”, the “YAP1 (% UTC)” value [4] was 73 % UTC.
For “1075179 (antisense kA*kA*kT*dT*dA*dG*d[5mC]*d[5mC]*dG*dG*dT*d[5mC]*d[5mC]*k[5mC]*kA*kG) [Compound 1075179]”, the “YAP1 (% UTC)” value [4] was 107 % UTC.
With “1074660 (antisense kA*kA*kT*dT*dT*d[5mC]*dA*dT*dT*dA*d[5mC]*dT*dA*k[5mC]*kT*k[5mC]) [Compound 1074660]” the “YAP1 (% UTC)” value [5] was 48 % UTC.
“1074309 (antisense k[5mC]*k[5mC]*kG*d[5mC]*dA*dT*dT*dG*d[5mC]*d[5mC]*dT*dG*dT*kG*kG*k[5mC]) [Compound 1074309]” was tested, and the “YAP1 (% UTC)” value [2] was 80 % UTC.
In the case of “1075558 (kA*kT*kA*dT*dT*dA*dA*dG*dG*dT*dG*dG*d[5mC]*kT*kT*kA; antisense) [Compound 1075558]”, the “YAP1 (% UTC)” value [6] is reported as 51 % UTC.
With “1075049 (antisense kG*kA*kA*dA*dT*dA*dT*dT*dG*dG*dT*dA*dA*kG*kT*k[5mC]) [Compound 1075049]” the “YAP1 (% UTC)” value [7] was 10 % UTC.
In the case of “1074507 (kA*kT*kA*dA*dT*d[5mC]*dG*dA*dG*dA*dT*dT*dT*kA*kA*kA; antisense) [Compound 1074507]”, the “YAP1 (% UTC)” value [4] is reported as 74 % UTC.
In the case of “1076234 (k[5mC]*k[5mC]*kT*dT*dA*dA*dT*dA*dT*dA*dT*d[5mC]*d[5mC]*kA*k[5mC]*kA; antisense) [Compound 1076234]”, the “YAP1 (% UTC)” value [8] is reported as 24 % UTC.
“1074674 (antisense kT*kA*kT*dA*dG*dG*d[5mC]*dA*d[5mC]*dT*d[5mC]*d[5mC]*dT*kT*k[5mC]*k[5mC]) [compound 1074674]” was tested, and the “YAP1 (% UTC)” value [9] was 22 % UTC.
For “1074311 (antisense kT*kT*k[5mC]*d[5mC]*dG*d[5mC]*dA*dT*dT*dG*d[5mC]*d[5mC]*dT*kG*kT*kG) [Compound 1074311]”, the “YAP1 (% UTC)” value [10] was 24 % UTC.
For “1074387 (k[5mC]*k[5mC]*kA*dG*dG*dA*dA*dT*dG*dG*d[5mC]*dT*dT*k[5mC]*kA*kA; antisense) [compound 1074387]”, the “YAP1 (% UTC)” value (Table 33, Yap1 mRNA, percent of untreated control, 3-10-3 cEt gapmers targeting SEQ ID NO.: 1, and 2) was 32 % UTC.
In the case of “716414 (kG*kT*kT*d[5mC]*dA*dT*dT*d[5mC]*d[5mC]*dA*dT*d[5mC]*dT*k[5mC]*k[5mC]*kT; antisense) [Compound 716414]”, the “YAP1 (% UTC)” value [1] is reported as 59 % UTC.
“1076146 (kG*k[5mC]*kT*dA*dA*dA*dA*d[5mC]*dT*dT*dT*d[5mC]*dA*kT*k[5mC]*k[5mC]; antisense) [compound 1076146]” was tested, and the “YAP1 (% UTC)” value [9] was 23 % UTC.
For “1076230 (kG*kA*kA*dT*dT*dA*dA*d[5mC]*d[5mC]*dT*d[5mC]*dA*dG*kT*kG*kA; antisense) [Compound 1076230]”, the “YAP1 (% UTC)” value [6] was 50 % UTC.
For “1076357 (kT*k[5mC]*k[5mC]*dA*dA*dA*dA*dA*d[5mC]*dT*dT*d[5mC]*dT*kT*kA*kG; antisense) [Compound 1076357]”, the “YAP1 (% UTC)” value [2] was 22 % UTC.
For “1076336 (antisense k[5mC]*kA*kT*dT*dA*d[5mC]*d[5mC]*dA*d[5mC]*d[5mC]*dT*dA*dT*kA*kA*kG) [compound 1076336]”, the “YAP1 (% UTC)” value [11] was 31 % UTC.
In the case of “1074152 (antisense k[5mC]*kG*kG*dG*d[5mC]*d[5mC]*dG*dA*dG*dG*dT*dG*dG*kA*kG*kA) [Compound 1074152]”, the “YAP1 (% UTC)” value [12] is reported as 77 % UTC.
With “1074347 (antisense kG*kT*kT*dA*dA*dG*dG*dA*dA*dA*dG*dG*dA*kT*k[5mC]*kT) [Compound 1074347]” the “YAP1 (% UTC)” value [4] was 34 % UTC.
For “1074213 (antisense kG*kA*kG*dT*d[5mC]*dG*dG*dG*d[5mC]*dA*dG*d[5mC]*dT*kT*k[5mC]*k[5mC]) [Compound 1074213]”, the “YAP1 (% UTC)” value [2] was 55 % UTC.
“1075794 (k[5mC]*kA*kT*dA*dA*dT*dG*dA*dA*dT*dG*dT*dG*kG*kG*kT; antisense) [compound 1075794]” was tested, and the “YAP1 (% UTC)” value [9] was 38 % UTC.
For “1076523 (antisense kA*kT*kT*dT*dA*dT*dA*dT*d[5mC]*dA*dG*dG*dT*k[5mC]*kA*kA) [Compound 1076523]”, the “YAP1 (% UTC)” value [4] was 5 % UTC.
In the case of “716568 (kG*kA*kT*dT*dT*dT*dT*dT*d[5mC]*dT*dG*dA*dG*kT*kT*k[5mC]; antisense) [Compound 716568]”, the “YAP1 (% UTC)” value [13] is reported as 72 % UTC.
In the case of “1076011 (kA*kT*kA*dT*dA*dA*dA*d[5mC]*dA*dA*dT*dA*dG*k[5mC]*kG*kA; antisense) [Compound 1076011]”, the “YAP1 (% UTC)” value [4] is reported as 61 % UTC.
For “1075526 (kT*kT*kT*dA*dA*dT*dT*dA*dA*dG*dG*dG*d[5mC]*k[5mC]*k[5mC]*kA; antisense) [Compound 1075526]”, the “YAP1 (% UTC)” value [6] was 110 % UTC.
With “716536 (antisense kA*kA*kG*dT*dA*dG*dA*dT*d[5mC]*dT*dA*dA*dG*kA*kA*kG) [Compound 716536]” the “YAP1 (% UTC)” value [3] was 94 % UTC.
In the case of “1074601 (antisense k[5mC]*k[5mC]*kA*dG*d[5mC]*dT*dA*dA*d[5mC]*dT*d[5mC]*dA*dA*kA*kA*k[5mC]) [Compound 1074601]”, the “YAP1 (% UTC)” value [7] is reported as 24 % UTC.
With “1076522 (antisense kG*k[5mC]*kA*d[5mC]*dT*dA*dA*dA*dG*dG*dA*dG*dT*k[5mC]*kA*kT) [Compound 1076522]” the “YAP1 (% UTC)” value [8] was 35 % UTC.
With “716385 (kT*kT*k[5mC]*d[5mC]*d[5mC]*dA*dT*d[5mC]*d[5mC]*dA*dT*d[5mC]*dA*kG*kG*kA; antisense) [Compound 716385]” the “YAP1 (% UTC)” value [13] was 87 % UTC.
With “716422 (kA*kG*kT*dA*dT*d[5mC]*dT*dT*dG*d[5mC]*dT*dG*dG*kA*k[5mC]*kG; antisense) [Compound 716422]” the “YAP1 (% UTC)” value [3] was 39 % UTC.
For “1075056 (antisense k[5mC]*kT*kT*dT*dA*dT*dT*dA*dT*d[5mC]*dT*d[5mC]*dA*kA*k[5mC]*k[5mC]) [compound 1075056]”, the “YAP1 (% UTC)” value [11] was 21 % UTC.
For “1076264 (kA*k[5mC]*k[5mC]*d[5mC]*dA*dA*dT*dA*dA*d[5mC]*d[5mC]*dA*dA*kG*kT*kG; antisense) [Compound 1076264]”, the “YAP1 (% UTC)” value [12] was 40 % UTC.
In the case of “1076208 (kG*kA*kG*dG*dA*dA*dT*dA*dT*dT*dA*d[5mC]*dA*kG*kA*k[5mC]; antisense) [compound 1076208]”, the “YAP1 (% UTC)” value [11] is reported as 15 % UTC.
For “1074441 (k[5mC]*kA*kA*dA*d[5mC]*dT*dA*dA*dA*dT*dG*d[5mC]*dT*kG*kT*kG; antisense) [Compound 1074441]”, the “YAP1 (% UTC)” value [7] was 5* % UTC.
With “1075848 (kG*kA*kT*dT*dA*d[5mC]*dA*dA*dT*dG*dG*dG*d[5mC]*kA*kG*kT; antisense) [Compound 1075848]” the “YAP1 (% UTC)” value [12] was 9 % UTC.
“1076136 (k[5mC]*kA*kA*d[5mC]*dA*dA*d[5mC]*d[5mC]*dT*d[5mC]*dA*dT*dG*kT*kA*kA; antisense) [Compound 1076136]” was tested, and the “YAP1 (% UTC)” value [12] was 60 % UTC.
In the case of “1075154 (k[5mC]*kA*kT*dT*dA*dT*dA*dA*dT*dG*dG*dG*dA*kG*kG*kA; antisense) [compound 1075154]”, the “YAP1 (% UTC)” value [9] is reported as 13 % UTC.
“1074983 (antisense k[5mC]*kA*k[5mC]*d[5mC]*dT*dT*dT*dT*dA*dT*dT*dG*d[5mC]*k[5mC]*kA*kG) [Compound 1074983]” was tested, and the “YAP1 (% UTC)” value [10] was 11 % UTC.
“1075344 (antisense kT*kA*kA*d[5mC]*dT*dA*dA*dA*dA*dG*dG*dG*dA*kG*kT*kA) [compound 1075344]” was tested, and the “YAP1 (% UTC)” value [11] was 91 % UTC.
In the case of “1074443 (kT*k[5mC]*kA*dG*dA*d[5mC]*d[5mC]*dA*dG*dT*dA*dA*dA*kT*k[5mC]*kA; antisense) [Compound 1074443]”, the “YAP1 (% UTC)” value [4] is reported as 7 % UTC.
With “1076004 (kT*kA*kA*dT*dT*dT*dA*dA*dT*dG*dG*d[5mC]*dT*kT*kG*k[5mC]; antisense) [Compound 1076004]” the “YAP1 (% UTC)” value [5] was 2 % UTC.
